Test results as given in US8618066B1 (priority 2003, dated 2013).
Entries after “also recorded” stand apart in the source; their conditions may differ. No end group written: not given here.

B1: Holotricin 3: peptide, source Holotrichia diomphalia (peptide, listed as Holotrichia diomphalia)
chain: YGPGDGHGGGHGGGHGGGHGNGQGGGHGHGPGGGFGGGHGGGHGGGGRGGGGSGGGGSPGHGAGGGYPGGHGGGHHGGYQTHGY
modifications: Holotricin 3
notes: peptide, source Holotrichia diomphalia
B2: NK-Lysin: peptide, source Sus scrofa (peptide, listed as Amaranthus caudatus)
chain: GYFCESCRKIIQKLEDMVGPQPNEDTVTQAASQVCDKLKILRGLCKKIMRSFLRRISWDILTGKKPQAICVDIKICKE

test system: Bacillus atrophaeus (B. atrophaeus); assay type: cell-based; conditions: not given

Row | Molecule | % Growth Inhibition, ProteCoat alone
1 | FRLKFHI [ProteCoat, amino acid polymer consisting essentially of 7 amino acids] | 0%

test system: Gram+ & Gram− bacteria, fungi, virus, mammalian/cancer cells; conditions: cited from earlier work

Row | Molecule | Activity
2 | FRLKFHI [ProteCoat, amino acid polymer consisting essentially of 7 amino acids] | Fungi
3 | Penaeidin-1: peptide, source Penoeid shrimp (YRGGYTGPIPRPPPIGRPPLRLVVCACYRLSVSDARNCCIKFGSCCHLVK; Penaeidin-1; listed as Penaeus vannamei) | Gram+ & Gram−, Fungi
4 | Peptide PGQ: peptide, source African clawed frog (GVLSNVIGYLKKLGTGALNAVLKQ; Peptide PGQ; listed as Xenopus laevis) | Gram+ & Gram−, Fungi
5 | SEQ ID No. 44: synthetic antifungal peptide, Table 1 (MFKLRF) | Fungi
6 | RatNP-3: peptide, source Rat (CSCRTSSCRFGERLSGACRLNGRIYRLCC; RatNP-3; listed as Rattus norvegicus) | Gram+ & Gram−, Virus, Fungi
7 | Histatin 1: peptide, source Crab eating macaque (DSHEERHHGRHGHHKYGRKFHEKHHSHRGYRSNYLYDN; Histatin 1; listed as Macaca fascicularis) | Gram+ & Gram−, Fungi
8 | AMP2 (MJ-AMP2): peptide, source Garden four-o'clock (CIGNGGRCNENVGPPYCCSGFCLRQPNQGYGVCRNR; antimicrobial peptidic agent2 (MJ-antimicrobial peptidic agent2); listed as Mirabilis jalapa) | Gram+, Fungi
9 | Skin peptide tyrosine-tyrosine: peptide, source Two-colored leaf frog | Gram+ & Gram−, Fungi
10 | SEQ ID No. 184: synthetic antifungal peptide, Table 1 (YMPQGPRLNLWHW) | Fungi
11 | SEQ ID No. 38: synthetic antifungal peptide, Table 1 (YFKLRF) | Fungi
12 | Hexapeptide: peptide, source Bovine (RRWQWR; hexapeptide; listed as Bos taurus) | Gram+ & Gram−, Virus, Fungi,
13 | Thanatin: peptide, source Podisus maculiventris (GSKKPVPIIYCNRRTGKCQRM; listed as Podisus maculiventris) | Gram+ & Gram−, Fungi
14 | NP-3A defensin: peptide, source Rabbit (GICACRRRFCPNSERFSGYCRVNGARYVRCCSRR; NP-3A defensin; listed as Oryctolagus cuniculus) | Gram+ & Gram−, Virus, Fungi
15 | Brevinin-1BB: peptide, source Rio Grande leopard frog (FLPAIAGMAAKFLPKIFCAISKKC; Brevinin-1BB; listed as Rana berlandieri) | Gram+ & Gram−, Fungi
16 | SEQ ID No. 25: synthetic antifungal peptide, Table 1 (FRF) | Fungi
17 | B1 | Fungi
18 | B2 | Gram+ & Gram−, Fungi

same assay, conditions: classes of organisms/cells the peptide is active against; cited from earlier work

Row | Molecule | Activity
19 | Dhvar5: peptide, source Synthesis (LLLFLLKKRKKRKY; Synthesis dhvar5) | Gram+ & Gram−, Fungi
20 | Melittin B | Gram+ & Gram−, Fungi,; also recorded: Mammalian cells

test system: Fusarium oxysporum f. sp. lycopersici; conditions: not given

Row | Molecule | growth at the lowest peptide concentration tested
21 | FRLKFHI [antimicrobial peptidic agent-7] | clear retardation of growth

same assay, conditions: 48 h, 0.78 mg/ml

Row | Molecule | inhibition at the lowest peptide concentration tested
22 | FRLKFHI [antimicrobial peptidic agent-7] | less than 10%

test system: Fusarium oxysporum f. sp. lycopersici (F. oxysporum); assay type: cell-based; conditions: not given

Row | Molecule | % Growth Inhibition, ProteCoat alone
23 | FRLKFHI [ProteCoat, amino acid polymer consisting essentially of 7 amino acids] | 44%
